The source of these data is US12263192B2, “Compositions for management of disorders of the gastrointestinal tract” (PanTheryx, Inc., priority 2019, dated 2025).

In one assay the test system is these cell lines. Conditions: cited from earlier work.
The test system of the next assay is rotavirus. Conditions: pediatric patients; 3 day course; 7.5 mg/kg suspension; cited from earlier work.
Assay [1] relates to AGS cells. Put plainly: Proliferation assay (ALAMARBLUE) of egg and/or colostrum, Example 8A. The assay is classed as cell-based, human. The method, then: Cell proliferation assays were performed as previously described, utilising ALAMARBLUETM (Invitrogen, Paisley, UK), (Marchbank et al., Am J Physiol Gastrointest Liver Physiol. 2009; 296:[…]-703) as per manufacturer's instructions. Briefly, cells were seeded at 2000 cells/well, grown in medium and 10% FCS in 96 well plates overnight. The following day, cells were washed with medium alone and incubated in medium alone (negative control), medium containing epidermal growth factor (EGF, 1 μg/ml, positive control) or egg and colostrum combination. BSA was added to additional wells as a further negative control. Data are expressed as % positive control where the rise in proliferation (increase in A570 above baseline) caused by […] of EGF was defined as 100%. Whole powdered egg and colostrum (0.25-4 mg/ml) was added to cells and effect on proliferation and cell migration analysed. Additional studies compared “pure” yolk and egg white powder (1 mg powder/ml) along with separated yolk and white from fresh eggs (added at same protein concentration as equivalent powder) and also compared uncooked egg powder and whole fresh egg that had been heated to 100° C. for 8 minutes (samples placed in 50 ml falcon tube in waterbath, followed by homogenisation) prior to addition to cells. […] This 40:60 proportion was used to reproduce the product currently commercially available and used in trials of infectious diarrhoea. Gaensbauer et al. BMJ Glob Health. 2017; 2:e000452. The importance of the EGFR and TGFβ in mediating proliferative and migratory effects was examined by adding whole egg powder (1 mg/ml, w/v) to cells in the presence and absence of tyrphostin (100 nM) and a TGFβ ([…]) neutralising antibody (antibodies-online.com, Aachen, Germany). Additional samples examined the effect of pure ovomucoid (25-100 μg/ml) and ovalbumin (50-400 μg/ml) on proliferation and migration. To further examine the contribution of ovomucoid and ovalbumin in mediating the proliferative and migratory activity seen using whole egg powder, further wells had egg powder added (1 mg/ml) in the presence of anti-ovomucoid and ovalbumin antibodies (Generon, Slough, Berkshire, UK) at 1 μg/ml.

For assay [2], the system named is AGS cells. The assay can be described thus: Cell migration assay (wounded monolayers) of egg and/or colostrum, Example 8A. The assay is classed as cell-based, human. As to conditions: purified protein. The method, then: Cell migration assays were performed using our previously published methods. Marchbank et al., Am J Physiol Gastrointest Liver Physiol. 2009; 296:[…]-703. Briefly, confluent monolayers had standard wounds inflicted and serial photomicrographs taken. Twenty measurements per field were performed by placing a transparent grid over the photograph and measuring the distance moved from the original wound line. All results are expressed as mean (SEM) of four separate experiments. Whole powdered egg and colostrum (0.25-4 mg/ml) was added to cells and effect on proliferation and cell migration analysed. Additional studies compared “pure” yolk and egg white powder (1 mg powder/ml) along with separated yolk and white from fresh eggs (added at same protein concentration as equivalent powder) and also compared uncooked egg powder and whole fresh egg that had been heated to 100° C. for 8 minutes (samples placed in 50 ml falcon tube in waterbath, followed by homogenisation) prior to addition to cells. […] This 40:60 proportion was used to reproduce the product currently commercially available and used in trials of infectious diarrhoea. Gaensbauer et al. BMJ Glob Health. 2017; 2:e000452. […]

For assay [3], the system named is rotavirus infection in MA-104 cells. Conditions: cited from earlier work.
A further assay concerns RIE cells. The assay can be described thus: Cell proliferation assay in RIE cells. The assay is classed as cell-based, rat. As to conditions: vs SFM, standard colostrum or ZnC. How it is done: Human gastrointestinal cells (AGS cells) or rat intestinal epithelial cells (RIE cells) are seeded at 2000 cells/well in an appropriate growth medium containing glutamine and 10% foetal calf serum in 96 well plates overnight. The following day, cells are washed twice with serum-free medium and then incubated in serum-free medium alone (SFM negative control) or also containing colostrum at various concentrations or epidermal growth factor (EGF, positive control) overnight. The following day ALAMARBLUE™ is added to each well. ALAMARBLUE™ is a coloured substrate that changes colour from blue to pink in response to cellular metabolic reduction. This change can be determined by reading the absorbance of the wells at 570 nm using a spectrophotometer at 0 h when the substrate is added and 4 hours later.

For the molecule soya bean trypsin inhibitor, the proliferation or migration entry in the assay with these cell lines is on record as “does not increase proliferation or migration”. `CC(=O)Oc1ccccc1C(=O)Nc1ncc([N+](=O)[O-])s1` [Nitazoxanide]: in the assay on rotavirus, the “duration of rotavirus disease” value was “effective to reduce the duration of rotavirus disease”. In the case of “ovalbumin: purified ovalbumin, 42 kDa egg white protein”, the “effect on proliferation and migration” value in the assay with AGS cells [1] (pure isolated ovalbumin at 400 µg/mL) is reported as “major stimulatory effect”. The “cell proliferation dose-response, in words” value with AGS cells [1] (purified protein, 50-400 μg/ml) is “increasing activity up to the highest dose”. The “cell migration dose-response, in words” value in the assay with AGS cells [2] (50-400 μg/ml) is reported as “increasing activity up to the highest dose”. In the case of `O=c1cc(-c2ccc(O)c(O)c2)oc2cc(O)cc(O)c12` [luteolin], the “antiviral activity against rotavirus infection” value in assay [3] is “antiviral activity”. On to `O=c1cc(-c2ccc(O)cc2)oc2cc(O[C@@H]3O[C@H](CO)[C@@H](O)[C@H](O)[C@H]3O)cc(O)c12` [apigenin 7-O-glucoside], for which the “antiviral activity against rotavirus infection” value in assay [3] is on record as “antiviral activity”.

For zinc carnosine, the “cell proliferation (A570 nm), comparison in words” value with RIE cells was “stimulate cell proliferation”.

B1: ovomucoid: purified ovomucoid, 28 kDa egg white protein with trypsin inhibitor activity (protein, UniProt P01005 25-210, looked up)
Ovomucoid: AEVDCSRFPNATDKEGKDVLVCNKDLRPICGTDGVTYTNDCLLCAYSIEFGTNISKEHDGECKETVPMNCSSYANTTSEDGKVMVLCNRAFNPVCGTDGVTYDNECLLCAHKVEQGASVDKRHDGGCRKELAAVSVDCSEYPKPDCTAEDRPLCGSDNKTYGNKCNFCNAVVESNGTLTLSHFGKC
Consider B1, for which, in the assay on AGS cells [1] (from neutralising antibody studies), the “share of total proliferative and migratory activity of whole egg” value is given as “about 80%”. The “concentration of peak effect, cell proliferation” value with AGS cells [1] (purified protein, dose-response 25-100 μg/ml) was determined as 50 µg/mL. The “concentration of peak effect, cell migration” value with AGS cells [2] (dose-response 25-100 μg/ml) worked out at 50 µg/mL.
